We go through ten molecules from PMC3030572, “Antamanide, a Derivative of Amanita phalloides, Is a Novel Inhibitor of the Mitochondrial Permeability Transition Pore” (PLoS ONE, 2011).

“Also recorded” adds a separate entry of the source. Read-outs that look alike come from different tables or passages of the source.

The subject of assay [1] is HeLa cells. It is filed as cell-based, human. As to conditions: TMRM; for induction of mitochondrial depolarization / percentage of cells with depolarized mitochondria: difference from untreated cells: 1 hour; for percentage of cells with depolarized mitochondria: difference from untreated cells: Student's t test, Figure 5B. As for the experimental part:
Figure 5 Effect of AA on mitochondrial potential of HeLa cells. A, bar graphs report the ratio between the CRC detected in the presence (CRC) and absence (CRC0) of increasing concentrations of AA in mitochondria from HeLa cells. […] B,C cytofluorimetric analysis of mitochondrial depolarization. HeLa cells were incubated with the TMRM probe and treated for 1 hour with the reported concentrations of either clotrimazole (CTM) or TAT-HK peptide. An unrelated TAT-linked peptide (TAT-Ctr) is used as a negative control. […] Bar graphs in B display the percentage of cells with depolarized mitochondria (mean±SD, n = 4). […] Histograms in C report a representative experiment, where cells with polarized and depolarized mitochondria are indicated in red and grey, respectively.
(§1) Flow cytometry recordings were performed as described, [51], [52]. Briefly, at the end of the incubation, cells were resuspended in 135 mM NaCl, 10 mM HEPES, 5 mM CaCl2 and incubated at 37°C in either TMRM (10 nM) to detect mitochondrial depolarization (reduced TMRM staining), or in FITC-conjugated Annexin-V and propidium iodide (PI, 1 µg/ml), to detect phosphatidylserine exposure on the cell surface (increased FITC-conjugated Annexin-V staining) and loss of plasma membrane integrity (PI permeability and staining). […] Samples were analyzed on a FACSCanto II flow cytometer (Becton Dickinson, San Diego, CA, USA). Data acquisition and analysis were performed using FACSDiva software.

The test system of assay [2] is HeLa cells. It is filed as cell-based, human. The conditions noted are these: data not shown.
The subject of assay [3] is organic anion-transporting polypeptide family. The conditions noted are these: also our unpublished data; ref [8]; cited from earlier work. From the text: (§2) Antamanide (AA) is a monocyclic, homodetic decapeptide isolated from the poisonous mushroom Amanita phalloides. […] Little is known about the biochemical mechanisms underlying these diverse bioactivities. […] The CyP chaperone activity, i.e. the isomerization to the cis form of the peptidyl bonds preceding each proline, is involved in folding and association processes required for proteins to perform thei ...

Assay [4] relates to mitochondrial permeability transition pore (PTP). It counts as biochemical, mouse. As for the experimental part:
A, chemical structure of AA. B, D, Ca^2+ retention capacity (CRC) either in phosphate (Pi) buffer (B) or in arsenate (Asi) buffer (D). Calcium Green-5N fluorescence is reported as arbitrary units on the y axis.
Mitochondria were isolated either from livers of C57BL/6 mice through sequential centrifugations, or from cells, as described. To obtain mitochondria, cells were disrupted with a glass-Teflon potter in a buffer composed by 250 mM sucrose, 10 mM Tris-HCl, 0.1 mM EGTA-Tris, pH 7.4. Nuclei and plasma membrane fractions were separated by a first mild centrifugation (700× g, 10 min), and mitochondria were then spinned down at a higher speed (7000× g, 10 min). All procedures were carried out at 0–4°C.
PTP opening was detected as a fluorescence increase.

The test system is the same in assay [5]. As to conditions: ref [30]; cited from earlier work. From the text:
AA is the cyclodecapeptide c([…] (Figure 1A). To evaluate its effect on the PTP, we performed Ca^2+ retention capacity (CRC) assays on isolated mouse liver mitochondria (MLM).

For assay [6], the system named is muscle samples derived from patients affected by Ullrich muscular dystrophy. The conditions noted are these: ref [37]; cited from earlier work. From the text:
(§3) CyP-D is a promising pharmacological target.

In assay [7] the test system is mouse model of the disease. As to conditions: ref [38]; cited from earlier work.
Source text: as §3

The subject of assay [8] is HeLa cells. It is filed as cell-based, human. On the procedure:
A, cytofluorimetric analysis of cell death induction in HeLa cells treated for 1 hour with TAT-HK. […] TAT-Ctr was used as a negative control. Cells were double stained with Annexin V-FITC and propidium iodide (PI), to respectively evaluate apoptosis induction as phosphatidylserine exposure on the cell surface (increased Annexin V-FITC staining) and cell death as plasma membrane permeabilization (increased PI staining). We considered Annexin V^+ as early/intermediate apoptotic cells; PI^+ as necrotic cells; double stained as late apoptotic cells. Bar graphs display the percentage of each cell population (mean±SD, n = 4; double positive cells are added to both bars). […] B, histograms reporting a representative experiment, where viable cells are indicated in red, PI^+- and Annexin V^+-cells are indicated in grey and green, respectively.
as §1

Another assay relates to immunosuppressant. The arrangement: method as in PMID 1494502, PMID 8441706. As to conditions: ref [10], [11]; cited from earlier work.
Source text: as §2

Assay [9] relates to multidrug resistance proteins. As to conditions: ref [50]; cited from earlier work.
Another assay concerns lymphocyte activation. As to conditions: via CyP-A/CsA complex; ref [36]; cited from earlier work. From the text: (§4) CyP-D is a promising pharmacological target. It is part of the CyP protein family, composed by ubiquitous and extremely conserved proteins located in different subcellular compartments, [35].
The subject of a further assay is HCV/HIV. As to conditions: ref [35]; cited from earlier work.
Source text: as §4

The next assay has as its system malignancies. The conditions noted are these: ref [47]; cited from earlier work.
The subject of assay [10] is tumor necrosis; metastasis formation. As to conditions: ref [45]; cited from earlier work.
Assay [11] concerns mitochondrial permeability transition pore (PTP). As to conditions: ref [37]; cited from earlier work. As for the experimental part:
Briefly, at the end of the incubation, cells were resuspended in 135 mM NaCl, 10 mM HEPES, 5 mM CaCl2 and incubated at 37°C in either TMRM (10 nM) to detect mitochondrial depolarization (reduced TMRM staining), or in FITC-conjugated Annexin-V and propidium iodide (PI, 1 µg/ml), to detect phosphatidylserine exposure on the cell surface (increased FITC-conjugated Annexin-V staining) and loss of plasma membrane integrity (PI permeability and staining).

Assay [12] relates to HeLa cells. It counts as cell-based, human. As to conditions: phalloidin 50 µg/ml, 1 hour, TMRM, Figure S1B.
Setting [13] is: 30 min preincubation, then TAT-HK 1 hour.

Take `Clc1ccccc1C(c1ccccc1)(c1ccccc1)n1ccnc1` [CTM, clotrimazole]: the “induction of mitochondrial depolarization” value in the assay on HeLa cells [1] was “marked mitochondrial depolarization”. Moreover, the “percentage of cells with depolarized mitochondria: difference from untreated cells” value in the assay with HeLa cells [1] (n = 4) was “significant difference (Student's t test analysis; #: p<0.01)”. For the same molecule, the “cell death induction by clotrimazole” value with HeLa cells [2] (compared with TAT-HK) is reported as “A similar degree of cell death was observed”.
For `N#CC(C#N)=NNc1ccc(OC(F)(F)F)cc1` [FCCP], the “mitochondrial depolarization (positive control)” value with HeLa cells [1] (FCCP 4 µM) is given as “full mitochondrial depolarization”.
Regarding `C=CC[C@@H]1/C=C(\C)C[C@H](C)C[C@H](OC)[C@H]2O[C@@](O)(C(=O)C(=O)N3CCCC[C@H]3C(=O)O[C@H](/C(C)=C/[C@@H]3CC[C@@H](O)[C@H](OC)C3)[C@H](C)[C@@H](O)CC1=O)[C@H](C)C[C@@H]2OC` [FK506], in assay [3], the “inhibition of cell uptake of phalloidin” value is given as “cell uptake of phalloidin was also inhibited”.
Turning to `COC1=C(OC)C(=O)C(C)=CC1=O` [Ub0, Ubiquinone 0, reference compound], the “CRC/CRC0: difference from CRC of untreated mitochondria” value in assay [4] (AA at various concentrations, Figure 1C and D, mean±SD of at least 4 experiments, Student's t test) is listed as “significant difference (Student's t test analysis; *: p<0.01)”. The “PTP inhibition in arsenate” value in assay [4] (arsenate (Asi) buffer, Figure 1B, D) is “inhibits the pore also in Asi buffer, albeit to a lesser extent”. Further, the “PTP inhibition when phosphate is substituted with arsenate” value in assay [5] was “the effect of CsA, but not of Ub0, is abolished”.
For `CO[C@H]1C[C@@H]2CC[C@@H](C)[C@@](O)(O2)C(=O)C(=O)N2CCCC[C@H]2C(=O)O[C@H]([C@H](C)C[C@@H]2CC[C@@H](O)[C@H](OC)C2)CC(=O)[C@H](C)/C=C(\C)[C@@H](O)[C@@H](OC)C(=O)[C@H](C)C[C@H](C)/C=C/C=C/C=C/1C` [rapamycin], the “inhibition of cell uptake of phalloidin” value in assay [3] is “cell uptake of phalloidin was also inhibited”.
Take Debio-025: the “mitochondrial function and apoptotic rate” value was “normalizes mitochondrial function and apoptotic rate” in [6]; “normalizes mitochondrial function and apoptotic rate” in [7].
Take “MIASHLLAYFFTELNbA-GYGRKKRRQRRRG [TAT-HK, HKII-displacing peptide]”: in the assay with HeLa cells [1], the “induction of mitochondrial depolarization” value is given as “marked mitochondrial depolarization”. For the same molecule, in the assay on HeLa cells [1] (n = 4), the “percentage of cells with depolarized mitochondria: difference from untreated cells” value is reported as “significant difference (Student's t test analysis; #: p<0.01)”. Further, in the assay with HeLa cells [8] (TAT-HK 1 hour, Annexin V / propidium iodide), the cell death induction entry is “fast and dramatic cell death, mainly necrosis”. Moreover, the “number of PI+ cells: difference from untreated cells” value in the assay with HeLa cells [8] (TAT-HK 1 hour, n = 4, Student's t test #: p<0.01) is listed as “significantly increased”.
As to cyclosporin A [CsA], the “reversal of CTM-induced mitochondrial depolarization” value in the assay with HeLa cells [1] (30 min preincubation, then CTM 1 hour, n = 4) is given as “significantly decreased the percentage of cells with mitochondria depolarized by CTM (Student's t test analysis; *: p<0.01); also recorded: similarly reverted”. Besides, in the assay on HeLa cells [1] (30 min preincubation, then TAT-HK 1 hour, n = 4), the “reversal of TAT-HK-induced mitochondrial depolarization” value is “similarly reverted”. Also, in the assay on immunosuppressant, the immunosuppressant activity entry is listed as “act as immunosuppressants”. Also, in the assay on HeLa cells [8] (setting [13]), the “effect on TAT-HK-induced necrotic response” value was “virtually abolished the necrotic response” and the “residual apoptosis after TAT-HK” value is recorded as “a small fraction of cells undergoing apoptosis was still detectable”. In addition, the “protection from TAT-HK induced death” value in the assay with HeLa cells [8] (30 min preincubation, then TAT-HK 1 hour, n = 4, Student's t test *: p<0.01) is “significantly protected from TAT-HK induced death”. Moreover, in assay [9], the “inhibition of multidrug resistance proteins” value was “inhibits multidrug resistance proteins”. Moreover, the “inhibition of clotrimazole-induced cell death” value in the assay with HeLa cells [2] (clotrimazole) is “inhibited the process”. Moreover, the “inhibition of lymphocyte activation” value with lymphocyte activation is “inhibits lymphocyte activation”. Moreover, in the assay on HCV/HIV, the “prevention of HCV/HIV replication” value is reported as “prevent HCV/HIV replication”. The “effect on progression of malignancies” value in the assay on malignancies is “can enhance the progression of certain malignancies”. Also, in assay [10], the “effect on tumor necrosis and metastasis” value was “induces tumor necrosis and abrogates metastasis formation”.
Regarding cyclosporin H, the “activity on the PTP” value in assay [11] was “inactive on the PTP”.
Consider phalloidin [reference compound], for which the “effect on mitochondrial potential” value with HeLa cells [12] is recorded as “could not detect any effect”. In addition, the “activity on the PTP” value in [4] (phalloidin 50 µg/ml) is “inactive on the PTP”. For the same molecule, the “effect on mitochondrial Ca2+ retention capacity” value in assay [4] (phalloidin 50 µg/ml, MLM, 3 experiments, Figure S1A) is “could not detect any effect”.
